According to patent US6589990B1, “Methods and compositions for misoprostol compound treatment of erectile dysfunction” (priority 1997, dated 2003):
Where two headings read alike, the source gives them in different places.

Tests used:
[1] = tested on: human male subjects having ED; assay: Clinical trials in human male subjects having ED; type: in vivo
Experimental: Subjects were 52 men aged 22-67 years, with ED of various causes. […] In all trials with these subjects, the following methods were applied successively for from a few days to 4 weeks: intracavernosal injection of 1.0 ml papaverine solution, 40 μγ/ml; […]; […]; topical application to the glans penis 0.08 to 0.1 ml, misoprostol gel 1000 μg/ml; intraurethral application of 0.08 to 0.1 ml misoprostol gel 1000 μg/ml; and topical application to the glans penis 0.1 ml. Gel of placebo.
In the tests using either the gel or cream containing about […] of misoprostol per 0.1 ml, the formulation was applied by the patients themselves using their finger and a few retroactive movements of the prepuce on the glans of penis until the ointment was completely absorbed. The intraurethral gel was instilled by the patients with help of a thin syringe and a lubricating medium (propylene glycol or glycerin) to facilitate insertion of the syringe.
In some patients with venous leak problems, a bandage tourniquet with a rubber band (or condom) on the base of the penis was applied 15-20 minutes after application of misoprostol. This method was particularly effective. […] In various subjects with ED due to one of several different causes, “pelvic exercises” were recommended (Kegel exercises) while the erection was developing. […] All tests were performed in the clinic without visual or any other type of stimulation.

[2] = at 35° C.; cited from earlier work
Solubility in water = type: physicochemical
[3] = Single high dosage, systemic undesirable effects (Example 9); conditions: in the presence of α-cyclodextrin
[4] = human, in vivo
[5] = cited from earlier work
[6] = tested on: vessels of the glans penis; assay: Vasodilatory action, into the corpus cavernosum versus topical; type: in vivo; conditions: external application; compared with misoprostol
Source text: This is due to the differences in the mechanism of action on erectile function between misoprostol and other vasodilators (e.g. alprostadil): misoprostol applied topically can penetrate into the corpora cavernosa and can act on the smooth muscle fibers of the vessels, compared to other vasodilators. Further, its major site of action is on the vessels of the glans penis, and to a lesser extent, the prepuce.

[7] = total (N = 52), intracavernosal injection, 1 ml of 4%
[8] = total (N = 52), intracavernosal injection, 0.5 ml of 1.0 mg/ml
[9] = total (N = 52), intraurethral ointment or γ-cyclodextrin complex in K-Y jelly, 1000 μg PGE1 in 0.1 ml
[10] = total (N = 52), externally applied gel, 80-100 μg
[11] = total (N = 52), intraurethral applied gel, 80-100 μg

COc1ccc(Cc2nccc3cc(OC)c(OC)cc23)cc1OC [papaverine]
subjects having a positive pharmacological outcome ([1]; hormonal ED (N = 1), intracavernosal injection, 1 ml of 4%): 0 | subjects having a positive pharmacological outcome ([1]; neurogenic ED (N = 5), intracavernosal injection, 1 ml of 4%): 2 | subjects having a positive pharmacological outcome ([1]; psychogenic ED (N = 15), intracavernosal injection, 1 ml of 4%): 10 | percent of subjects having a positive pharmacological outcome [1, 7]: 42% | subjects having a positive pharmacological outcome [1, 7]: 22 | subjects having a positive pharmacological outcome ([1]; undetermined etiology (N = 7), intracavernosal injection, 1 ml of 4%): 3 | subjects having a positive pharmacological outcome ([1]; vascular ED (N = 24), intracavernosal injection, 1 ml of 4%): 7

CCCCC[C@H](O)/C=C/[C@H]1[C@H](O)CC(=O)[C@@H]1CCCCCCC(=O)O [alprostadil]
subjects having a positive pharmacological outcome ([1]; hormonal ED (N = 1), intracavernosal injection, 0.5 ml of 1.0 mg/ml): 1 | subjects having a positive pharmacological outcome ([1]; hormonal ED (N = 1), intraurethral ointment or γ-cyclodextrin complex in K-Y jelly, 1000 μg PGE1 in 0.1 ml): 0 | subjects having a positive pharmacological outcome ([1]; neurogenic ED (N = 5), intracavernosal injection, 0.5 ml of 1.0 mg/ml): 4 | subjects having a positive pharmacological outcome ([1]; neurogenic ED (N = 5), intraurethral ointment or γ-cyclodextrin complex in K-Y jelly, 1000 μg PGE1 in 0.1 ml): 1 | subjects having a positive pharmacological outcome ([1]; psychogenic ED (N = 15), intracavernosal injection, 0.5 ml of 1.0 mg/ml): 11 | subjects having a positive pharmacological outcome ([1]; psychogenic ED (N = 15), intraurethral ointment or γ-cyclodextrin complex in K-Y jelly, 1000 μg PGE1 in 0.1 ml): 9 | percent of subjects having a positive pharmacological outcome [1, 8]: 60% | subjects having a positive pharmacological outcome [1, 8]: 31 | percent of subjects having a positive pharmacological outcome [1, 9]: 31% | subjects having a positive pharmacological outcome [1, 9]: 16 | subjects having a positive pharmacological outcome ([1]; undetermined etiology (N = 7), intracavernosal injection, 0.5 ml of 1.0 mg/ml): 5 | subjects having a positive pharmacological outcome ([1]; undetermined etiology (N = 7), intraurethral ointment or γ-cyclodextrin complex in K-Y jelly, 1000 μg PGE1 in 0.1 ml): 1 | subjects having a positive pharmacological outcome ([1]; vascular ED (N = 24), intracavernosal injection, 0.5 ml of 1.0 mg/ml): 10 | subjects having a positive pharmacological outcome ([1]; vascular ED (N = 24), intraurethral ointment or γ-cyclodextrin complex in K-Y jelly, 1000 μg PGE1 in 0.1 ml): 5 | solubility in water [2]: 8000 micrograms/100 ml

CCCCC(C)(O)C/C=C/[C@H]1[C@H](O)CC(=O)[C@@H]1CCCCCCC(=O)OC (mixture of isomers) [misoprostol, (11a 13E)-(±)-11,16-dihydroxy-16-methyl-9-oxoprost-13-en-1-oic acid methyl ester]
allergic or other topical reaction ([1]; application to glans penis or urethra): No allergic or any other topical reaction was reported except for redness of the glans | subjects having a positive pharmacological outcome ([1]; hormonal ED (N = 1), externally applied gel, 80-100 μg): 1 | subjects having a positive pharmacological outcome ([1]; hormonal ED (N = 1), intraurethral applied gel, 80-100 μg): 1 | subjects having a positive pharmacological outcome ([1]; neurogenic ED (N = 5), externally applied gel, 80-100 μg): 4 | subjects having a positive pharmacological outcome ([1]; neurogenic ED (N = 5), intraurethral applied gel, 80-100 μg): 5 | subjects having a positive pharmacological outcome ([1]; psychogenic ED (N = 15), externally applied gel, 80-100 μg): 13 | subjects having a positive pharmacological outcome ([1]; psychogenic ED (N = 15), intraurethral applied gel, 80-100 μg): 14 | percent of subjects having a positive pharmacological outcome [1, 10]: 62% | subjects having a positive pharmacological outcome [1, 10]: 32 | percent of subjects having a positive pharmacological outcome [1, 11]: 73% | subjects having a positive pharmacological outcome [1, 11]: 38 | subjects having a positive pharmacological outcome ([1]; undetermined etiology (N = 7), externally applied gel, 80-100 μg): 4 | subjects having a positive pharmacological outcome ([1]; undetermined etiology (N = 7), intraurethral applied gel, 80-100 μg): 5 | subjects having a positive pharmacological outcome ([1]; vascular ED (N = 24), externally applied gel, 80-100 μg): 10 | subjects having a positive pharmacological outcome ([1]; vascular ED (N = 24), intraurethral applied gel, 80-100 μg): 13 | solubility in water (in words) (Solubility in water): water soluble | single higher dose allowed, undesirable effects reduced or eliminated [3]: > 2000 micrograms | single high dose that can cause systemic undesirable effects (fatigue, erythema and diarrhea) [4]: > 1000 micrograms | single high dose that can cause systemic undesirable effects (fatigue, erythema and diarrhea) ([4]; male): > 1800 micrograms | undesirable effect of oral therapy [5]: male impotence

CCCCC(C)(O)C/C=C/[C@H]1[C@H](O)CC(=O)[C@@H]1CCCCCCC(=O)O (mixture of isomers) [misoprostol acid]
topical vasodilation [6]: equivalent strong topical vasodilation
